In ChEMBL document CHEMBL5370593, “Discovery and In Vitro Characterization of SPL028: Deuterated N,N-Dimethyltryptamine” (ACS Med Chem Lett, 2023):
Active and inactive are the calls of the source. The calls are words filed in the database; no cut-off is given here.

What was measured:
Format in all cases: cell-based
[1] = biological target: 5-hydroxytryptamine receptor 7 (Homo sapiens, UniProt P34969); assay: Displacement of [3H] LSD from human recombinant 5-HT7 receptor expressed in CHO-K1 cells at 10 uM incubated for 120 mins by spectrophotometric analysis relative to control
Sequence of 5-hydroxytryptamine receptor 7 (P34969 whole entry): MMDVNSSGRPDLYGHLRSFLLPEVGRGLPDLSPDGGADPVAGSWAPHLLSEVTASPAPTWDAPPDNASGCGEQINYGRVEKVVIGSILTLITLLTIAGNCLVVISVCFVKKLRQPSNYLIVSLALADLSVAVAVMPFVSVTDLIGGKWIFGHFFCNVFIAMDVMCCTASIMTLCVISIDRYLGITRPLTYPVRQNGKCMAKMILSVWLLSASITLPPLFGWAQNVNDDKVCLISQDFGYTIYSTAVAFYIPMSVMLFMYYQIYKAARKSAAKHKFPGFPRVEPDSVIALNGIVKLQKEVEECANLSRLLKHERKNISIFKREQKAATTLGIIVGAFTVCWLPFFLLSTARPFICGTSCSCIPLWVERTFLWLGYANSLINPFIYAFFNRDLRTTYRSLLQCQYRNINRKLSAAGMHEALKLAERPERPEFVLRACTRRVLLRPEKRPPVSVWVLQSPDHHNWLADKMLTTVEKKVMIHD

[2] = biological target: 5-hydroxytryptamine receptor 2B (Homo sapiens) (UniProt P41595); assay: Displacement of [3H] LSD from human recombinant 5-HT2B receptor expressed in CHO-K1 cells at 10 uM incubated for 60 mins by spectrophotometric analysis relative to control
Sequence of 5-hydroxytryptamine receptor 2B (Homo sapiens) (P41595 whole entry): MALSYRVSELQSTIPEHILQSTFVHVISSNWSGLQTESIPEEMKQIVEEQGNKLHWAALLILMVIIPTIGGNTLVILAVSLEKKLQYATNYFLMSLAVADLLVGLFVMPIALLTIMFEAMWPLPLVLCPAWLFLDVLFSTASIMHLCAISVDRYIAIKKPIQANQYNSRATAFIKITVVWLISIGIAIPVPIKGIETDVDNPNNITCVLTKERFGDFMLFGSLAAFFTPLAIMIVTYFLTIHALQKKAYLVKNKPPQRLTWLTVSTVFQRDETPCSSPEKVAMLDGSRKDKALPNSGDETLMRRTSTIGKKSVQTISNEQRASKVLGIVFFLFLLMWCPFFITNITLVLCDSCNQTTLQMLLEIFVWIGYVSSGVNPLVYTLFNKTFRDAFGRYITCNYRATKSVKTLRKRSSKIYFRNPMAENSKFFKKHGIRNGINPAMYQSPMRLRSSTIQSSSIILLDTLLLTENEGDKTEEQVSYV

[3] = biological target: Alpha-2C adrenergic receptor (Homo sapiens) (UniProt P18825); assay: Displacement of [3H]-rauwolscine from human recombinant adrenergic alpha-2c receptor expressed in CHO-K1 cells at 10 uM incubated for 60 mins by […] relative to control
Sequence of Alpha-2C adrenergic receptor (Homo sapiens) (P18825 whole entry): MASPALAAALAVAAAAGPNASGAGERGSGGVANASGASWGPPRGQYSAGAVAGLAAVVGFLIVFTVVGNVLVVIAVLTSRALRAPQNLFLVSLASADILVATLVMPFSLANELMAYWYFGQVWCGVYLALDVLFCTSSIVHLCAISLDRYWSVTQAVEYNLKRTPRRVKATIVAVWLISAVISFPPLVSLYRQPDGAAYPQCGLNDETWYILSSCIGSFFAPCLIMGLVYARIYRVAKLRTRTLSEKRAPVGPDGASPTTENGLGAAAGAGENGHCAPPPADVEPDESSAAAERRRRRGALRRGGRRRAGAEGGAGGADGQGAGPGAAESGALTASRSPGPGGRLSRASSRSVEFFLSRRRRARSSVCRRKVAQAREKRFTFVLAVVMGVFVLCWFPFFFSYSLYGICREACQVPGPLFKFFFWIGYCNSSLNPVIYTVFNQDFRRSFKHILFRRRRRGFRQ

[4] = biological target: Alpha-1D adrenergic receptor (Homo sapiens) (UniProt P25100); assay: Displacement of [3H] prazosin from human recombinant adrenergic alpha-1d receptor expressed in HEK293 cells at 10 uM incubated for 60 mins by spectrophotometric analysis relative to control
Sequence of Alpha-1D adrenergic receptor (Homo sapiens) (P25100 whole entry): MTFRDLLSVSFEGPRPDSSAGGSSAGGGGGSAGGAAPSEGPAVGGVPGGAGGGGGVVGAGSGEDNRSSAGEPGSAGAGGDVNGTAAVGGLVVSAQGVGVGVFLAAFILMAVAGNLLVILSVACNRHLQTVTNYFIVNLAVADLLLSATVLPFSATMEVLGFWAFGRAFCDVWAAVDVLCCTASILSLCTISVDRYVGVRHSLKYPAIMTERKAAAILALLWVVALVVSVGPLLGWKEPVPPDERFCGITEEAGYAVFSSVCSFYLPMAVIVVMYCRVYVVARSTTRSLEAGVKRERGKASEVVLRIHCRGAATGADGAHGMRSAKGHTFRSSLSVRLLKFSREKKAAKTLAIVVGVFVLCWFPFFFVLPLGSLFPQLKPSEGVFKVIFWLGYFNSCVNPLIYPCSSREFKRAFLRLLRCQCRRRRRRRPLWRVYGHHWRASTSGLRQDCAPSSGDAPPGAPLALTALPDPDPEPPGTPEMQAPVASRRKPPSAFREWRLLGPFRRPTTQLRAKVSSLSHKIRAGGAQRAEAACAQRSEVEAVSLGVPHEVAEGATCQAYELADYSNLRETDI

[5] = biological target: Neuronal acetylcholine receptor; alpha3/beta4 (Homo sapiens, UniProt P30926+P32297); assay: Displacement of [125I]-epibatidine from human recombinant nAChR alpha3beta4 receptor expressed in CHO-K1 cells at 10 uM incubated for 60 mins by spectrophotometric analysis relative to control
[6] = biological target: 5-hydroxytryptamine receptor 1A (Homo sapiens) (UniProt P08908); assay: Displacement of [3H] 8-OH-DPAT from human recombinant 5-HT1A receptor expressed in CHO-K1 cells at 10 uM incubated for 60 mins by spectrophotometric analysis relative to control
[7] = biological target: Alpha-1B adrenergic receptor (Homo sapiens) (UniProt P35368); assay: Displacement of [3H] prazosin from human recombinant adrenergic alpha-1b receptor expressed in […] cells at 10 uM incubated for 60 mins by spectrophotometric analysis relative to control
Sequence of Alpha-1B adrenergic receptor (Homo sapiens) (P35368 whole entry): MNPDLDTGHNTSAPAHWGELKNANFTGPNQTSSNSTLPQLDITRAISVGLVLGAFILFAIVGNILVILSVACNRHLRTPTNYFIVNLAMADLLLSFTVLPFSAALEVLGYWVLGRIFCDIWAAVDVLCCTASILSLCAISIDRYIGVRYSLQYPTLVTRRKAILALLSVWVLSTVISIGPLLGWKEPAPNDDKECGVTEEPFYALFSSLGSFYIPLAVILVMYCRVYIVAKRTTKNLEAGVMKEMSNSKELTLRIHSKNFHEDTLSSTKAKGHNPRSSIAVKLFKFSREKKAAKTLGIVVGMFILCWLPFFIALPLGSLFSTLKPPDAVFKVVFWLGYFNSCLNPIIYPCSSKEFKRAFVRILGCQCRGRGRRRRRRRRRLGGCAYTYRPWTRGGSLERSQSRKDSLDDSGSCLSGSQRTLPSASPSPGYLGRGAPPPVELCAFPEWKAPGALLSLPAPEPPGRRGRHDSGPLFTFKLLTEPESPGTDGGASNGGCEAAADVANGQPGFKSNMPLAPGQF

[8] = biological target: 5-hydroxytryptamine receptor 6 (Homo sapiens, UniProt P50406); assay: Displacement of [3H] LSD from human recombinant 5-HT6 receptor expressed in human HeLa cells at 10 uM incubated for 120 mins by spectrophotometric analysis relative to control
Sequence of 5-hydroxytryptamine receptor 6 (P50406 whole entry): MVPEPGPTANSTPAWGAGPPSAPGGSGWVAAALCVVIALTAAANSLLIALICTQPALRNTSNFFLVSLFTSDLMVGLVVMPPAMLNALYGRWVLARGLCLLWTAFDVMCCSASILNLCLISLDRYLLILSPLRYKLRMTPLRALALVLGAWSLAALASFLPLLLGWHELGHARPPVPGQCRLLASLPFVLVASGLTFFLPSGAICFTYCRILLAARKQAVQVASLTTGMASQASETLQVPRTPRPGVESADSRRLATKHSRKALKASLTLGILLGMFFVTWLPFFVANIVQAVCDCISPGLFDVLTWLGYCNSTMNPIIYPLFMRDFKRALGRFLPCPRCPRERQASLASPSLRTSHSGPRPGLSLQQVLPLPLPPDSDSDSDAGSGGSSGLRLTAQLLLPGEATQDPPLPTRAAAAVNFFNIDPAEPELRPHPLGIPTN

[9] = biological target: Alpha-1A adrenergic receptor (Homo sapiens) (UniProt P35348); assay: Displacement of [3H] prazosin from human recombinant adrenergic alpha-1a receptor expressed in […] cells at 10 uM incubated for 60 mins by spectrophotometric analysis relative to control
Sequence of Alpha-1A adrenergic receptor (Homo sapiens) (P35348 whole entry): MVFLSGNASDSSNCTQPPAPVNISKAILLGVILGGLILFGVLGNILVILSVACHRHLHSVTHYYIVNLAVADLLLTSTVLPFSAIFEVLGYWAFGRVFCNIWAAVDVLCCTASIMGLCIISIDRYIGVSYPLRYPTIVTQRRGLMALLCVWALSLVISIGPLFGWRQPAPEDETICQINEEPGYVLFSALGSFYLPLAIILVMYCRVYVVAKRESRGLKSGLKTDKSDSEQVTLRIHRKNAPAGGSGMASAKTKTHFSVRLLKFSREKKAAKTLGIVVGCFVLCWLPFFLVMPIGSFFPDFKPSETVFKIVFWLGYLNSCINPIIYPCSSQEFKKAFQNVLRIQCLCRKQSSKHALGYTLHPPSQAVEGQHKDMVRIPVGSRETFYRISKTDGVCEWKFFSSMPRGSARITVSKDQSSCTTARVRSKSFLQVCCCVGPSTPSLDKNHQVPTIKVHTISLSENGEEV

[10] = biological target: Alpha-2B adrenergic receptor (Homo sapiens) (UniProt P18089); assay: Displacement of [3H]-rauwolscine from human recombinant adrenergic alpha-2b receptor expressed in […] cells at 10 uM incubated for 60 mins by […] relative to control
Sequence of Alpha-2B adrenergic receptor (Homo sapiens) (P18089 whole entry): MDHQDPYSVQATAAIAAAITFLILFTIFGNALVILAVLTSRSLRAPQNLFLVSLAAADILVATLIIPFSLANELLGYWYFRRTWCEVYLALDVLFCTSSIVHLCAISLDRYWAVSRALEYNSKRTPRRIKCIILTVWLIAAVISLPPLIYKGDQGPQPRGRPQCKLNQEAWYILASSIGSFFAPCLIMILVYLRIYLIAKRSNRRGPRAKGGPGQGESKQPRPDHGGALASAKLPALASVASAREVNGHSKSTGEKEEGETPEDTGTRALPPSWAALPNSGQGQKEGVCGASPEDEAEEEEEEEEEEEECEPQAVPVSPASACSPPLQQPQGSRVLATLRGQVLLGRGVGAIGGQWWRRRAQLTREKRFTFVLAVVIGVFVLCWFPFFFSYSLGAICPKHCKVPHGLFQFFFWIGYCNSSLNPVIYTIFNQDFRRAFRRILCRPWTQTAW

[11] = biological target: 5-hydroxytryptamine receptor 1B (Homo sapiens, UniProt P28222); assay: Displacement of [3H] GR125743 from human recombinant 5-HT1B receptor expressed in […] cells at 10 uM incubated for 90 mins by spectrophotometric analysis relative to control
[12] = biological target: Alpha-2A adrenergic receptor (Homo sapiens) (UniProt P08913); assay: Displacement of [3H]-rauwolscine from human recombinant adrenergic alpha-2A receptor expressed in CHO-K1 cells at 10 uM incubated for 60 mins by spectrophotometric analysis relative to control
Sequence of Alpha-2A adrenergic receptor (Homo sapiens) (P08913 whole entry): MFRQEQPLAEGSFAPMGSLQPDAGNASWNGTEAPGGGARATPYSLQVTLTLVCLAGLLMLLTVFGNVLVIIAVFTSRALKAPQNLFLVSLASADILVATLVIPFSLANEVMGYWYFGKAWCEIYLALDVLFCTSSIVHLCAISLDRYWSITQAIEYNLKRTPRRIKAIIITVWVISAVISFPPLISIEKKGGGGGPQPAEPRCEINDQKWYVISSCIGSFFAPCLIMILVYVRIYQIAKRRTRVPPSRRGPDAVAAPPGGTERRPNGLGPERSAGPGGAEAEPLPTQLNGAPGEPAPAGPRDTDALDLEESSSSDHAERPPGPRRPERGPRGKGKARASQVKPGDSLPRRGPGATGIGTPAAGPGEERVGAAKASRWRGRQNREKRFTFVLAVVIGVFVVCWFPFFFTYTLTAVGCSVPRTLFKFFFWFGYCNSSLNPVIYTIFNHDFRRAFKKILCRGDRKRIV

[13] = biological target: 5-hydroxytryptamine receptor 5A (Homo sapiens, UniProt P47898); assay: Displacement of [3H] LSD from human recombinant 5-HT5A receptor expressed in CHO-K1 cells at 10 uM incubated for 60 mins by spectrophotometric analysis relative to control
Sequence of 5-hydroxytryptamine receptor 5A (P47898 whole entry): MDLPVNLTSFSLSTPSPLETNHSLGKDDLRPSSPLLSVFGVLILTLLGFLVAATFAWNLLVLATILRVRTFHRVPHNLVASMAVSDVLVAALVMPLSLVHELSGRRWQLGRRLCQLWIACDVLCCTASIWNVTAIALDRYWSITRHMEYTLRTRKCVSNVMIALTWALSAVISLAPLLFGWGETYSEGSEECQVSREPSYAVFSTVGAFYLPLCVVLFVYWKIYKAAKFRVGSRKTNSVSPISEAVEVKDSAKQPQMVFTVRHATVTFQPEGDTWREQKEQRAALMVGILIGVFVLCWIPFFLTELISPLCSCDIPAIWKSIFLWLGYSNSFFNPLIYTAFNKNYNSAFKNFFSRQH

[14] = biological target: Sigma non-opioid intracellular receptor 1 (Homo sapiens) (UniProt Q99720); assay: Displacement of [3H] pentazocine from human sigma 1 receptor expressed in human Jurkat cells at 10 uM incubated for 120 mins by spectrophotometric analysis relative to control; details: tested as the 2H-labelled form
Sequence of Sigma non-opioid intracellular receptor 1 (Homo sapiens) (Q99720 whole entry): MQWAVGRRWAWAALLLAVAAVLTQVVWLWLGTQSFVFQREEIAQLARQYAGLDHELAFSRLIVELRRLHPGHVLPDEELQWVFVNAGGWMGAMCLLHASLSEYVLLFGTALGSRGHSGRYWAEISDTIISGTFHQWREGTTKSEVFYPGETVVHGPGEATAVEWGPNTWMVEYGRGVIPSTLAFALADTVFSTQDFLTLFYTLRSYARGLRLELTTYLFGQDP

[15] = biological target: Sigma non-opioid intracellular receptor 1 (Homo sapiens) (UniProt Q99720); assay: Displacement of [3H] pentazocine from human sigma 1 receptor expressed in human Jurkat cells at <=10 uM incubated for 120 mins by spectrophotometric analysis

## CN(C)CCc1c[nH]c2ccccc12.O=C(O)/C=C/C(=O)O
[1]
  inhibition: 90.4%
[1]; tested as the 2H-labelled form
  inhibition: 95.5%
[2]
  inhibition: 95.5%
[2]; tested as the 2H-labelled form
  inhibition: 96.5%
[3]
  inhibition: 58.4%
[3]; tested as the 2H-labelled form
  inhibition: 57.6%
[4]
  inhibition: 54.1%
[4]; tested as the 2H-labelled form
  inhibition: 63.2%
[5]
  inhibition: 64.6%
[5]; tested as the 2H-labelled form
  inhibition: 63.5%
[6]
  inhibition: 96%
[6]; tested as the 2H-labelled form
  inhibition: 97.6%
[7]
  inhibition: 85.8%
[7]; tested as the 2H-labelled form
  inhibition: 87.2%
[8]
  inhibition: 86.1%
[8]; tested as the 2H-labelled form
  inhibition: 86.2%
[9]
  inhibition: 85.1%
[9]; tested as the 2H-labelled form
  inhibition: 85.1%
[10]
  inhibition: 81.1%
[10]; tested as the 2H-labelled form
  inhibition: 79.8%
[11]
  inhibition: 73.1%
[11]; tested as the 2H-labelled form
  inhibition: 75.5%
[12]
  inhibition: 67.1%
[12]; tested as the 2H-labelled form
  inhibition: 69.1%
[13]
  inhibition: 72.7%
[13]; tested as the 2H-labelled form
  inhibition: 70.2%
[14]
  inhibition: 45%
[15]
  inhibition: inactive
[15]; tested as the 2H-labelled form
  inhibition: inactive
